# In patent US20210386068A1, “COMPOSITIONS COMPRISING PYRIDINE CARBOXYLATE HERBICIDES AND VERY LONG CHAIN FATTY ACID (VLCFA) SYNTHESIS INHIBITOR HERBICIDES” (priority 2018, published 2021):
# Tests used:
# [1] = test system: Papaver rhoeas (common poppy, PAPRH); assay: Greenhouse postemergence herbicidal effect, visual injury 20-22 d after spraying, common poppy (PAPRH); type: in vivo; details: Anilofos or Pretilachlor 300 g/ha
# From the text: (§1) Seeds of the desired test plant species were planted in a 90:10% v/v (volume/volume) mixture of PRO-MIX® BX (Premier Tech Horticulture, Quakertown, Pa., USA) and PROFILE® GREENS GRADE™ (Profile Products LLC, Buffalo Grove, Ill., USA) planting mixture, which typically has a pH of 5.2 to 6.2 and an organic matter content of at least 50 percent, in plastic pots with a surface area of 103.2 square centimeters (cm^2). In some aspects, to ensure good germination and healthy plants, a fungicide treatment and/or other chemical or physical treatment was applied. The plants were grown for 7-36 days (d) in a greenhouse with an approximate 14-hour (h) photoperiod which was maintained at about 23° C. during the day and 22° C. during the night. Nutrients and water were added on a regular basis and supplemental lighting was provided with overhead metal halide 1000-Watt lamps as necessary. The plants were employed for testing when they reached the second or third true leaf stage.
# (§2) Emulsifiable concentrates of each of each pyridine carboxylate herbicide (Compound A or Compound B) were prepared at 100 grams acid equivalent per liter (g ae/L). The emulsifiable concentrates also included a safener, cloquintocet-mexyl, at 120 grams active ingredient per liter (g ai/L). An aliquot of each emulsifiable concentrate was placed in a 25 mL glass vial and diluted with an aqueous mixture of 1.25% (v/v) ACTIROB® B esterified rapeseed oil (Bayer Crop Science, Research Triangle Park, N.C., USA) or MSO® Concentrate with LECI-TECH® methylated soybean oil (Loveland Products, Loveland, Colo., USA) to obtain concentrated stock solutions at the highest application rate for each herbicide, based upon a 12 milliliter (mL) application volume at a rate of 187 liters per hectare (L/ha). The concentrated stock solutions were further diluted with an aqueous mixture of 1.25% v/v ACTIROB® B or MSO® Concentrate with LECI-TECH® to obtain stock solutions at reduced application rates for each herbicide. Spray solutions of the herbicide combinations (Compound A or Compound B plus VLCFA synthesis inhibitor herbicide) were prepared by adding weighed amounts or aliquots of the VLCFA synthesis inhibitor herbicide to the stock solutions of Compound A or Compound B to form 12-mL spray solutions in two-way combinations.
# (§3) The spray solutions were applied to the plant material with an overhead Mandel track sprayer equipped with 8002E nozzles calibrated to deliver 187 L/ha over an application area of 0.503 square meters (m^2) at a spray height of 18 inches ([…] (cm)) above the average plant canopy. Control plants were sprayed in the same manner with the solvent blank. All pyridine carboxylate herbicide (component a) application rates are given as “g ae/ha” and all VLCFA synthesis inhibitor herbicide (component b) application rates are given as “g ai/ha.”
# (§4) The treated plants and control plants were placed in a greenhouse as described above and watered by sub-irrigation to prevent wash-off of the test compounds. After 20-22 d, the condition of the test plants as compared with that of the control plants was determined visually and scored on a scale of 0 to 100 percent where 0 corresponds to no injury and 100 corresponds to complete kill.
# [2] = test system: Stellaria media (common chickweed, STEME); assay: Greenhouse postemergence herbicidal effect, visual injury 20-22 d after spraying, common chickweed (STEME); type: in vivo; details: Anilofos or Pretilachlor 300 g/ha
# From the text: as §1, §2, §3, §4
# [3] = test system: Capsella bursa-pastoris (shepherd's purse, CAPBP); assay: Greenhouse postemergence herbicidal effect, visual injury 20-22 d after spraying, shepherd's purse (CAPBP); type: in vivo; details: Anilofos or Pretilachlor 300 g/ha
# From the text: as §1, §2, §3, §4
# [4] = test system: Veronica hederifolia (ivy-leaved speedwell, VERHE); assay: Greenhouse postemergence herbicidal effect, visual injury 20-22 d after spraying, ivy-leaved speedwell (VERHE); type: in vivo; details: Anilofos or Pretilachlor 300 g/ha
# From the text: as §1, §2, §3, §4
# [5] = test system: Brassica napus (winter rape, BRSNW); assay: Greenhouse postemergence herbicidal effect, visual injury 20-22 d after spraying, winter rape (BRSNW); type: in vivo; details: Anilofos or Pretilachlor 300 g/ha
# From the text: as §1, §2, §3, §4
# [6] = test system: Matricaria chamomilla (wild chamomile, MATCH); assay: Greenhouse postemergence herbicidal effect, visual injury 20-22 d after spraying, wild chamomile (MATCH); type: in vivo; details: Anilofos or Pretilachlor 300 g/ha
# From the text: as §1, §2, §3, §4
# [7] = test system: Veronica persica (Persian speedwell, VERPE); assay: Greenhouse postemergence herbicidal effect, visual injury 20-22 d after spraying, Persian speedwell (VERPE); type: in vivo; details: Anilofos or Pretilachlor 300 g/ha
# From the text: as §1, §2, §3, §4
# winter wheat (TRZAW) = assay: Greenhouse postemergence crop phytotoxicity, visual injury 20-22 d after spraying, winter wheat (TRZAW); type: in vivo, Triticum aestivum; details: Anilofos or Pretilachlor 300 g/ha
# From the text: as §1, §2, §3, §4
# [8] = test system: Polygonum convolvulus (wild buckwheat, POLCO); assay: Greenhouse postemergence herbicidal effect, visual injury 20-22 d after spraying, wild buckwheat (POLCO); type: in vivo; details: Anilofos or Pretilachlor 300 g/ha
# From the text: as §1, §2, §3, §4
# [9] = test system: Cyanus segetum (cornflower, CENCY); assay: Greenhouse postemergence herbicidal effect, visual injury 20-22 d after spraying, cornflower (CENCY); type: in vivo; details: Anilofos or Pretilachlor 300 g/ha
# From the text: as §1, §2, §3, §4
# [10] = test system: Matricaria inodora (scentless chamomile, MATIN); assay: Greenhouse postemergence herbicidal effect, visual injury 20-22 d after spraying, scentless chamomile (MATIN); type: in vivo; details: Anilofos or Pretilachlor 300 g/ha
# From the text: as §1, §2, §3, §4
# [11] = test system: Viola tricolor (wild pansy, VIOTR); assay: Greenhouse postemergence herbicidal effect, visual injury 20-22 d after spraying, wild pansy (VIOTR); type: in vivo; details: for % visual injury VIOTR Obs: Anilofos or Pretilachlor 300 g/ha
# From the text: as §1, §2, §3, §4
# [12] = test system: Sinapis arvensis (wild mustard, SINAR); assay: Greenhouse postemergence herbicidal effect, visual injury 20-22 d after spraying, wild mustard (SINAR); type: in vivo; details: Anilofos or Pretilachlor 300 g/ha
# From the text: as §1, §2, §3, §4
# [13] = test system: Triticum aestivum (spring wheat, TRZAS); assay: Greenhouse postemergence crop phytotoxicity, visual injury 20-22 d after spraying, spring wheat (TRZAS); type: in vivo; details: Anilofos or Pretilachlor 300 g/ha
# From the text: as §1, §2, §3, §4
# [14] = test system: Hordeum vulgare (spring barley, HORVS); assay: Greenhouse postemergence crop phytotoxicity, visual injury 20-22 d after spraying, spring barley (HORVS); type: in vivo; details: Anilofos or Pretilachlor 300 g/ha
# From the text: as §1, §2, §3, §4
# [15] = test system: Kochia scoparia (kochia, KCHSC); assay: Greenhouse postemergence herbicidal effect, visual injury 20-22 d after spraying, kochia (KCHSC); type: in vivo; details: Anilofos or Pretilachlor 300 g/ha
# From the text: as §1, §2, §3, §4
# [16] = test system: Lamium purpureum (purple deadnettle, LAMPU); assay: Greenhouse postemergence herbicidal effect, visual injury 20-22 d after spraying, purple deadnettle (LAMPU); type: in vivo; details: Anilofos or Pretilachlor 300 g/ha
# From the text: as §1, §2, §3, §4
# winter barley (HORVW) = assay: Greenhouse postemergence crop phytotoxicity, visual injury 20-22 d after spraying, winter barley (HORVW); type: in vivo, Hordeum vulgare; details: Anilofos or Pretilachlor 300 g/ha
# From the text: as §1, §2, §3, §4
# [17] = test system: Matricaria discoidea (pineapple weed, MATMT); assay: Greenhouse postemergence herbicidal effect, visual injury 20-22 d after spraying, pineapple weed (MATMT); type: in vivo; details: Anilofos or Pretilachlor 300 g/ha
# From the text: as §1, §2, §3, §4
# [18] = test system: Salsola kali (Russian thistle, SASKR); assay: Greenhouse postemergence herbicidal effect, visual injury 20-22 d after spraying, Russian thistle (SASKR); type: in vivo; details: Anilofos or Pretilachlor 300 g/ha
# From the text: as §1, §2, §3, §4
# [19] = test system: Anthemis arvensis (corn chamomile, ANTAR); assay: Greenhouse postemergence herbicidal effect, visual injury 20-22 d after spraying, corn chamomile (ANTAR); type: in vivo; details: Anilofos or Pretilachlor 300 g/ha
# From the text: as §1, §2, §3, §4
# [20] = test system: Viola arvensis (field pansy, VIOAR); assay: Greenhouse postemergence herbicidal effect, visual injury 20-22 d after spraying, field pansy (VIOAR); type: in vivo; details: Anilofos or Pretilachlor 300 g/ha
# From the text: as §1, §2, §3, §4
# [21] = test system: Cirsium arvense (Canadian thistle, CIRAR); assay: Greenhouse postemergence herbicidal effect, visual injury 20-22 d after spraying, Canadian thistle (CIRAR); type: in vivo; details: for % visual injury CIRAR Obs: Anilofos or Pretilachlor 300 g/ha
# From the text: as §1, §2, §3, §4
# [22] = test system: Amaranthus retroflexus (pigweed, AMARE); assay: Greenhouse postemergence herbicidal effect, visual injury 20-22 d after spraying, pigweed (AMARE); type: in vivo; details: Flufenacet 60 g/ha alone
# From the text: as §1, §2, §3, §4
# [23] = test system: Helianthus annuus (common sunflower, HELAN); assay: Greenhouse postemergence herbicidal effect, visual injury 20-22 d after spraying, common sunflower (HELAN); type: in vivo; details: Flufenacet 60 g/ha alone
# From the text: as §1
# (§5) Emulsifiable concentrates of each of each pyridine carboxylate herbicide (Compound A or Compound B) were prepared at 100 grams acid equivalent per liter (g ae/L). The emulsifiable concentrates also included a safener, cloquintocet-mexyl, at 120 grams active ingredient per liter (g ai/L). […]
# as §4
# [24] = test system: Abutilon theophrasti (velvetleaf, ABUTH); assay: Greenhouse postemergence herbicidal effect, visual injury 20-22 d after spraying, velvetleaf (ABUTH); type: in vivo; details: Flufenacet 60 g/ha alone
# From the text: as §1, §5, §4
# [25] = test system: Ipomoea hederacea (ivyleaf morningglory, IPOHE); assay: Greenhouse postemergence herbicidal effect, visual injury 20-22 d after spraying, ivyleaf morningglory (IPOHE); type: in vivo; details: Flufenacet 60 g/ha alone
# From the text: as §1, §5, §4
Structure (SMILES),% visual injury PAPRH Obs [1],% visual injury STEME Obs [2],% visual injury CAPBP Obs [3],% visual injury VERHE Obs [4],% visual injury BRSNW Obs [5],% visual injury MATCH Obs [6],% visual injury TRZAW Obs (winter wheat (TRZAW)),% visual injury POLCO Obs [8],% visual injury CENCY Obs [9],% visual injury MATIN Obs [10],% visual injury VIOTR Obs [11],% visual injury SINAR Obs [12],% visual injury TRZAS Obs [13],% visual injury HORVS Obs [14],% visual injury KCHSC Obs [15],% visual injury LAMPU Obs [16],% visual injury HORVW Obs (winter barley (HORVW)),% visual injury MATMT Obs [17],% visual injury SASKR Obs [18],% visual injury ANTAR Obs [19],other results
"COP(=S)(OC)SCC(=O)N(c1ccc(Cl)cc1)C(C)C [Anilofos, S-[2-[(4-chlorophenyl)(1-methylethyl)amino]-2-oxoethyl] O,O-dimethyl phosphorodithioate]",25%,0%,0%,0%,5%,0%,0%,0%,10%,0%,0%,0%,0%,0%,0%,10%,0%,0%,0%,5%,% visual injury VERPE Obs [7]: 5%; % visual injury VIOAR Obs [20]: 0%; % visual injury CIRAR Obs [21]: 0%
"CC(C)N(C(=O)COc1nnc(C(F)(F)F)s1)c1ccc(F)cc1 [Flufenacet, N-(4-fluorophenyl)-N-(1-methylethyl)-2-[[5-(trifluoromethyl)-1,3,4-thiadiazol-2-yl]oxy]acetamide]",–,–,–,–,–,–,–,–,–,–,–,–,–,–,–,–,–,–,–,–,"% visual injury Obs ([11]; VIOTR, Flufenacet 60 g/ha alone): 0%; % visual injury Obs [22]: 5%; % visual injury Obs [23]: 15%; % visual injury Obs [24]: 3%; % visual injury Obs ([21]; CIRAR, Flufenacet 60 g/ha alone): 8%; % visual injury Obs [25]: 5%"
"CCCOCCN(C(=O)CCl)c1c(CC)cccc1CC [Pretilachlor, 2-chloro-N-(2,6-diethylphenyl)-N-(2-propoxyethyl)acetamide]",10%,0%,0%,5%,5%,20%,0%,8%,10%,0%,5%,5%,0%,0%,5%,5%,0%,13%,25%,10%,% visual injury VERVE Obs [7]: 10%; % visual injury VIOAR Obs [20]: 5%; % visual injury CIRAR Obs [21]: 5%
